Measurements reported in patent US20150352099A1, “Compositions and Methods of Reducing Sedation” (Mentinova Inc., priority 2014, published 2015).
Counter-ions that a name gives are not always drawn.

Key:
[1] = system: Parkinsonian non-human primates; experiment: Drug effects on the nervous system (DENS) sedation scores, nalbuphine monotherapy; format: in vivo; conditions: for Sedation Items: Appetite / Sedation Items: Attentiveness / Sedation Items: Eye Movement / Sedation Items: Mouth (excessive salivation, drooling) / Sedation Items: Reactivity: DENS score, total of all intervals; for Sedation Items: Total: total sedation score
Protocol: (§1) Parkinsonian non-human primates (n=6) were injected (s.c.) with Nalbuphine HCl (NB, dissolved in saline) and evaluated for changes in parkinsonian motor disability (MDS) and drug effects on the nervous system (DENS). Evaluations were performed immediately before injection (baseline), at 30 minutes post-injection and again every 20 minutes thereafter for 110 minutes or until effects were no longer observable. Five NB doses (0.0, 0.016, 0.05, 0.16, 0.50 mg/kg) were tested in each animal with each dose tested 3 times in all animals.
Itemized Sedation scores (see Uthayathas et al., “Assessment of adverse effects of neurotropic drugs in monkeys with the ‘drug effects on the nervous system’ (DENS) scale,” J Neurosci Methods. 2013 Apr. 30; 215(1):97-102, for complete description of the DENS scale, incorporated by reference herein in its entirety). The items in this scale are given in the table with the exception of “Involuntary Movements”, “Bowel” and “Bladder”, which were omitted because they were not scored with this scale. Scores are total values from adding all intervals. Higher scores reflect increased sedative effects. […] Values represent the means±SEM of all animals (n=6).

[2] = Pharmacokinetic parameters (Cmax, AUC, Tmax) of opioid given alone or with dopaminergic agent; conditions: sc, 0.25 mg/kg; for AUC / Cmax: plasma; for Tmax: serum
[3] = system: Parkinsonian non-human primates; experiment: Parkinsonian motor disability scores (MDS) versus sedation scores; format: in vivo; conditions: nalbuphine 0.016 mg/kg-0.50 mg/kg in primates; the FIGURE
From the text: The foregoing summary, as well as the following detailed description of the invention, will be better understood when read in conjunction with the appended drawings. The FIGURE is a graph showing total sedation scores as a function of motor disability in non-human primates treated with nalbuphine HCl monotherapy.
In other words, severity of dopamine deficiency is a predictor of the sedation severity for the same dose of nalbuphine given to different animals.
as §1, with “Five NB doses (0.0, 0.016, 0.05, 0.16, 0.50 mg/kg) were tested in each animal with each dose tested 3 times in all animals.” left out
Animals (n=6) were injected (s.c.) with NB immediately prior to receiving L-dopa (LD; levodopa methyl ester plus 25% benserazide, dissolved in saline and given s.c.). The LD dose was determined individually for each animal based on ‘on’ response and consistency of dyskinesia. Animals were evaluated for changes in parkinsonian motor disability scores (MDS), drug effects on the nervous system (Sedation) and severity of dyskinesias. […]

[4] = NB 0.016 mg/kg s.c., mean ± SEM n=6
[5] = NB 0.05 mg/kg s.c., mean ± SEM n=6
[6] = NB 0.16 mg/kg s.c., mean ± SEM n=6
[7] = NB 0.5 mg/kg s.c., mean ± SEM n=6

**Q.** For `Oc1ccc2c3c1O[C@H]1[C@@H](O)CC[C@@]4(O)[C@@H](C2)N(CC2CCC2)CC[C@]314` [NB, Nalbuphine HCl], which “Sedation Items: Appetite” value [1, 4] is on record?
**A.** 0.13 ± 0.13

**Q.** What about the “Sedation Items: Attentiveness” value [1, 4] of the same molecule?
**A.** 2.00 ± 0.73

**Q.** What about the “Sedation Items: Eye Movement” value [1, 4] of the same molecule?
**A.** 0.17 ± 0.17

**Q.** And the “Sedation Items: Mouth (excessive salivation, drooling)” value (from here on “Sedation Items: Mouth”) [1, 4]?
**A.** 0.13 ± 0.09

**Q.** And the “Sedation Items: Reactivity” value [1, 4]?
**A.** 0.67 ± 0.36

**Q.** What about the “Sedation Items: Total” value ([1]; NB 0.016 mg/kg s.c.) of the same molecule?
**A.** 3.08

**Q.** And the “Sedation Items: Appetite” value [1, 5]?
**A.** 0.56 ± 0.26

**Q.** What about the “Sedation Items: Attentiveness” value [1, 5] of the same molecule?
**A.** 2.75 ± 1.07

**Q.** And the “Sedation Items: Eye Movement” value [1, 5]?
**A.** 0.54 ± 0.25

**Q.** And the “Sedation Items: Mouth” value [1, 5]?
**A.** 0.17 ± 0.11

**Q.** What about the “Sedation Items: Reactivity” value [1, 5] of the same molecule?
**A.** 1.58 ± 0.85

**Q.** What about the “Sedation Items: Total” value ([1]; NB 0.05 mg/kg s.c.) of the same molecule?
**A.** 5.61

**Q.** And the “Sedation Items: Mouth” value ([1]; NB 0.16 mg/kg s.c., mean n=6)?
**A.** 0.00

**Q.** And the “Sedation Items: Appetite” value [1, 6]?
**A.** 1.48 ± 1.03

**Q.** What about the “Sedation Items: Attentiveness” value [1, 6] of the same molecule?
**A.** 3.17 ± 1.51

**Q.** What about the “Sedation Items: Eye Movement” value [1, 6] of the same molecule?
**A.** 2.44 ± 0.94

**Q.** What about the “Sedation Items: Reactivity” value [1, 6] of the same molecule?
**A.** 4.1 ± 1.60

**Q.** And the “Sedation Items: Total” value ([1]; NB 0.16 mg/kg s.c.)?
**A.** 11.19

**Q.** And the “Sedation Items: Appetite” value [1, 7]?
**A.** 4.79 ± 0.78

**Q.** And the “Sedation Items: Attentiveness” value [1, 7]?
**A.** 5.17 ± 1.34

**Q.** And the “Sedation Items: Eye Movement” value [1, 7]?
**A.** 3.29 ± 1.10

**Q.** What about the “Sedation Items: Mouth” value [1, 7] of the same molecule?
**A.** 1.17 ± 1.07

**Q.** What about the “Sedation Items: Reactivity” value [1, 7] of the same molecule?
**A.** 6.65 ± 2.15

**Q.** And the “Sedation Items: Total” value ([1]; NB 0.5 mg/kg s.c.)?
**A.** 21.06

**Q.** What about the AUC ([2]; average AUC of opioid, nalbuphine 0.25 mg/kg subcutaneously with L-DOPA 25 mg/kg subcutaneously) of the same molecule?
**A.** ~89 ng·h/mL

**Q.** And the AUC ([2]; average AUC, nalbuphine 0.25 mg/kg subcutaneously, alone)?
**A.** ~96 ng·h/mL

**Q.** What about the Cmax ([2]; average Cmax of opioid, nalbuphine 0.25 mg/kg subcutaneously with L-DOPA 25 mg/kg subcutaneously) of the same molecule?
**A.** ~55 ng/mL

**Q.** And the Cmax ([2]; average Cmax, nalbuphine 0.25 mg/kg subcutaneously, alone)?
**A.** ~49 ng/mL

**Q.** What about the Tmax ([2]; average Tmax of opioid, nalbuphine 0.25 mg/kg subcutaneously with L-DOPA 25 mg/kg subcutaneously) of the same molecule?
**A.** ~32 min

**Q.** And the Tmax ([2]; average Tmax, nalbuphine 0.25 mg/kg subcutaneously, alone)?
**A.** ~37 min

**Q.** What about the “parkinsonian motor disability scores (MDS) versus sedation scores” value [3] of the same molecule?
**A.** correlate with sedation scores
